Experimental data taken from article PMC2837848 (Biochemistry, 2010).
Like-named read-outs stand apart in the source and are kept apart here.

Tests used:
[1] = target: QAPRTase (Salmonella typhimurium quinolinic acid phosphoribosyltransferase) (Salmonella enterica, UniProt P30012); test: steady-state kinetics; format: biochemical; details: read-out: WT
[2] = target: QAPRTase (Salmonella typhimurium quinolinic acid phosphoribosyltransferase) (Salmonella enterica, UniProt P30012, R153A); test: biochemical
[3] = target: QAPRTase (Salmonella typhimurium quinolinic acid phosphoribosyltransferase) (Salmonella enterica, UniProt P30012, H189A); test: biochemical

SMILES	Km ([1]; co-substrate QA)	Kd [2]	Kd [3]	Km ([1]; co-substrate PRPP)
O=P(O)(O)OC[C@H]1O[C@H](OP(=O)(O)OP(=O)(O)O)[C@H](O)[C@@H]1O [PRPP, 5-phosphoribosyl 1-pyrophosphate]	57 ± 7 µM	~1000 µM	480 ± 75 µM	–
O=C(O)c1cccnc1C(=O)O [QA, quinolinic acid]	–	–	–	27 ± 6 µM
